According to patent US11046720B2, “Dimethylphosphine oxide compound” (GUIZHOU INOCHINI TECHNOLOGY CO., LTD, priority 2018, dated 2021):
Like-named read-outs stand apart in the source and are kept apart here.

Legend:
[1] = target: T1, LRRK2 full-length human recombinant protein (Homo sapiens, UniProt Q5S007); assay: In vitro evaluation of LRRK2 kinase inhibitory activity (HTRF / TR-FRET, LRRKtide); assay type: biochemical; conditions: 57 μM ATP, 0.4 uM Fluorescein-ERM (LRRKtide) peptide
T1 construct: express LRRK2 full-length human recombinant protein in Sf9 cells of insects; GST; made in house; host or cells: Sf9 insect cells (baculovirus)
T1 sequence (Q5S007 whole entry): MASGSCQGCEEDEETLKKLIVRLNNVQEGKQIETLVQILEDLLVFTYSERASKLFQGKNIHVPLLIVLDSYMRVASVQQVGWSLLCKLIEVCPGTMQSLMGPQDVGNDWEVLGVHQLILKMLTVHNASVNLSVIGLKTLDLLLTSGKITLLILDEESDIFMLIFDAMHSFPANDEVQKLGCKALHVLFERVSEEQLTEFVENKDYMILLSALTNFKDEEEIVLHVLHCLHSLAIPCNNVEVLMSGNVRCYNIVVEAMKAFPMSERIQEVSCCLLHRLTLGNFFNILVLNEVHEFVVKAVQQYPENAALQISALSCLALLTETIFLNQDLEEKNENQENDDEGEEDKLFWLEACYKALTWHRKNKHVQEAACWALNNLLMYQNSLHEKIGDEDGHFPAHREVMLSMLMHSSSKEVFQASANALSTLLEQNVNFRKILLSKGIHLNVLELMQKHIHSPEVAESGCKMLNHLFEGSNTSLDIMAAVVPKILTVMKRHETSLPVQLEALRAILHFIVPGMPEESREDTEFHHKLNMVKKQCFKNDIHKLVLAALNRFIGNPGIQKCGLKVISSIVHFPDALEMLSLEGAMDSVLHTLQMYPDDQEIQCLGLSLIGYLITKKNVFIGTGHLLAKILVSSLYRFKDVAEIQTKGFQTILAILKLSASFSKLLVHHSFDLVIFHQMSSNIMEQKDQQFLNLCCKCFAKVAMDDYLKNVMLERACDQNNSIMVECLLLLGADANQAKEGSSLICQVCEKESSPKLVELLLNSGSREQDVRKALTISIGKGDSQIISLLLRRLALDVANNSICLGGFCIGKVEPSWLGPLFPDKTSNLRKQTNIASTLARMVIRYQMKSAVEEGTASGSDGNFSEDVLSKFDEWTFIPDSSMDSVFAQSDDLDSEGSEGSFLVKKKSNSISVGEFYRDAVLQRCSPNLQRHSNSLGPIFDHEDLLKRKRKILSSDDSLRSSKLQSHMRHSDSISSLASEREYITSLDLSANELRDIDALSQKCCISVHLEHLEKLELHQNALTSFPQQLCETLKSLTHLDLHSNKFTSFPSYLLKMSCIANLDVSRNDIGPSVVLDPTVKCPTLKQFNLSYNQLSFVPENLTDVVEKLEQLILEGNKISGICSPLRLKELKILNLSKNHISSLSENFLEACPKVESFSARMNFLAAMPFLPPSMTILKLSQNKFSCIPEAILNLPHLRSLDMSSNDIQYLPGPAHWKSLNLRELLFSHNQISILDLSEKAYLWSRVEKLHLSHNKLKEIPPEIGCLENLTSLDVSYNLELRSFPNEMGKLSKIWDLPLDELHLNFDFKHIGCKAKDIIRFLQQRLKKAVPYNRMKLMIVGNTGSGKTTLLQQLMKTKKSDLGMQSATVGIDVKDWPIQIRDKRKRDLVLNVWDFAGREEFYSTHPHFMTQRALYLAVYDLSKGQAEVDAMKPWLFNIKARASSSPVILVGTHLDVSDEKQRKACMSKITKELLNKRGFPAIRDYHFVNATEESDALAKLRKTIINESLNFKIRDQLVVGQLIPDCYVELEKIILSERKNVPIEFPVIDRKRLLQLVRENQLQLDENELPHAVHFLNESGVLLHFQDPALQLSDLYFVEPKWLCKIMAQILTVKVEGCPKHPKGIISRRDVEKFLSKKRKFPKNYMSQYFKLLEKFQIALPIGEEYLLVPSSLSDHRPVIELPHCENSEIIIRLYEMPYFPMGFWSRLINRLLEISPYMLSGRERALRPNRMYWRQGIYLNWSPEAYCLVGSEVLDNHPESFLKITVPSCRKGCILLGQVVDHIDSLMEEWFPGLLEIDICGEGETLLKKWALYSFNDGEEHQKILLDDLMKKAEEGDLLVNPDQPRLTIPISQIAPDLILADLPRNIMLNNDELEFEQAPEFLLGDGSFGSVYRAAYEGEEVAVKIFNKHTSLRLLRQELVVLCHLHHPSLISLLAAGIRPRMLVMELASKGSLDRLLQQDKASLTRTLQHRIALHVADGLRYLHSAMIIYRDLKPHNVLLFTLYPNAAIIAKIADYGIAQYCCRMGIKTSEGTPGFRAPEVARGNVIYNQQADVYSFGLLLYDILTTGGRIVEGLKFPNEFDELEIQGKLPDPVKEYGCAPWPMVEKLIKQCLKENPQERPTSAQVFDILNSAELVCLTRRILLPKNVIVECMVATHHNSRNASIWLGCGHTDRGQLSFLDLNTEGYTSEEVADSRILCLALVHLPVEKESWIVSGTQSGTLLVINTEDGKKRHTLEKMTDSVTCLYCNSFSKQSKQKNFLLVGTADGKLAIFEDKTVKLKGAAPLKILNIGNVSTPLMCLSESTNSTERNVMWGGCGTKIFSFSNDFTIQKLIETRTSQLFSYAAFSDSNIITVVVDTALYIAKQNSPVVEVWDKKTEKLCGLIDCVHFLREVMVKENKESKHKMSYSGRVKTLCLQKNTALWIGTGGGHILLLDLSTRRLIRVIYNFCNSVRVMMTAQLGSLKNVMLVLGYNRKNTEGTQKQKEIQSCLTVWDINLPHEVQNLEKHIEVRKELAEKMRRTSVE
Protocol: Experimental purpose: to detect transfer of energy signals (ratio of fluorescence signals: […]) after the phosphate group of phosphorylated Fluorescein-ERM (LRRKtide) peptide binds with LanthaScreen® Tb-pERM (pLRRKtide) antibody using homogeneous time-resolved fluorescence. Calculate IC50 for LRRK2 inhibition of the compound to be assayed.
1. Reaction solution: 10 mM 4-(2-hydroxyethyl) piperazine-1-ethanesulfonic acid (pH 7.5); 2 mM magnesium chloride; 0.5 mM glycol-bis-(2-aminoethylether)-N; 0.002% primary alcohol ethoxylate, 1 mM dithiothreitol and 1% DMSO;
2. Assay solution: TR-FRET Dilution Buffer;
3. LRRK2 human recombinant protein: use GST tag and baculovirus to express LRRK2 full-length human recombinant protein in Sf9 cells of insects;
4. Substrate: 0.4 uM Fluorescein-ERM (LRRKtide) peptide; 57 uM ATR
Resonance energy transfer of Fluorescein-ERM (LRRKtide) peptide and LanthaScreen® Tb-pERM (pLRRKtide) antibody between […].
1. Add DMSO solution of the compound to be assayed through the Echo550 non-contact nano-liter acoustic droplet ejection system;
2. Prepare mixed solution of enzyme and polypeptide with freshly prepared reaction solution. Add the mixed solution to the reaction cavity and warm it up at room temperature for 20 minutes in advance;
3. Add 57 μM ATP to initiate reaction, which lasts for 90 minutes at room temperature;
4. Add fluorescein-ERM (LRRKtide) peptide, LanthaScreen® Tb-pERM (pLRRKtide) antibody and 10 mM ethylene diamine tetraacetic acid to the assay system. The reaction lasts for 60 minutes at room temperature. Detect yellow light signals with Em/Ex 520/485.
5. Measure enzyme activity inhibition relative to DMSO blank control group according to the signal ratio, and calculate IC50 by fitting curves with the software XLfit5.

LRRK2 (pSer935) = target: T2, LRRK2 (pSer935) (Homo sapiens, UniProt Q5S007); assay: In vitro evaluation of inhibitory activity for LRRK2 cell (pSer935), 293T cells transfected with pcmv-flag-lrrk2, MSD; assay type: cell-based
T2 construct: expressed in transfected cells; host or cells: 293T cells
T2 sequence (Q5S007 whole entry): as above
Protocol: Take 293T cells out of liquid nitrogen and put them in water at 37° C. After ice has fully thawed, transfer the cells to 5 mL warm culture medium. Discard the supernatant through centrifugation, and culture the suspended cells in the culture medium as new cells.
Culture the 293T cells in the culture medium for two to three days.
Plant 1.4×10^6/293T cells on a culture plate. After two days of culturing, cells will multiply to 5×10^6, so planting cells on N+1 plates is enough for performing experiments on N 96-well plates.
1) Add 5 μl (0.5 μg/μl) pcmv-flag-Irrk2 to 145 μl DMEM culture medium, and mix them evenly with a straw;
6) Incubate the culture plate inside a humidified incubator with 5% carbon dioxide for 20 to 24 hours at 37° C.
3. (Day 3) Plant the 293T Cells on the 96-Well Plate;
3) Transfer 50 μl inhibitor containing culture medium to the cell culture plate;
4) Incubate the culture plate inside a humidified incubator with 5% carbon dioxide for 20 to 24 hours at 37° C.;
5) Extract 300 μl inhibitor containing culture medium with a dropper. Take 200 μl inhibitor containing culture medium and add 100 μl decomposer into the culture medium. After the plate has been sealed, it shall be shaken for 30 minutes at 4° C.
1) Add 2 μg/25 μl labeled antibody to the MSD plate to incubate for 2 hours; (50 μl 3.9 μg/μl Flag antibody+2.5 ml fetal bovine serum per plate). Maintain centrifugation for 10 s (1,000 rpm);
5) Transfer 12.5 μl lysis buffer and 12.5 μl cell lysis buffer to the MSD plate to incubate for 1 hour at room temperature;
7) Dilute ps935 antibody at 1:200, and add 25 μl antibody to incubate for 1 hour;
9) Dilute goat anti-rabbit antibody at 1:500, and add 25 μl antibody to the incubation plate to incubate for 1 hour;
13) After incubation for about 3 minutes, read data over 15 minutes.

[2] = Pharmacokinetic evaluation in C57BL/6 mice, brain tissues and plasma; assay type: in vivo; conditions: oral, 5 mg/kg; for Kp / AUC(0-t) / Tmax / Cmax / half-life: male, C57BL/6, mouse; for Kp: brain/plasma, read-out: drug concentration ratio between brain tissues and plasma (B/P)
Protocol: Experimental purpose: to study pharmacokinetics of the compounds in vivo in C57BL/6 mice—drug concentration ratio between brain tissues and plasma
Experimental materials: C57BL/6 mice (male, 8 weeks old, weight: 25 g-30 g)
Assay Pharmacokinetic Features of Glires after they are Orally Administered the Compounds According to Standard Schemes.
In the experiment, the candidate compounds are prepared into 1 mg/mL mixed suspension, and mice are orally administered once. The menstruum for oral administration is 10% dimethyl sulfoxide (DMSO)/10% polysorbate/20% PEG-400 aqueous solution. This project uses male C57BL/6 mice, which are orally administered drugs at a dose of 5 mg/kg. Collect the whole brain 0.5, 1, 2 and 4 hours after the administration. Homogenize tissue samples with 15 mM [[…] (pH=7.4) buffer and methanol (volume ratio: 2:1)] at a ratio of 1:5 (w:v). Equally divide the homogenate into 2 samples: one for assay and the other for standby use. Besides, collect plasma 0.5, 1, 2 and 4 hours after administration. Centrifugate with 3,000 g relative centrifugal force within half an hour after collection at about 4° C. for 15 minutes to separate supernatant and obtain plasma samples. Store the plasma samples in polypropylene tubes; rapidly freeze them on dry ice and keep them at −80° C. till LC/MS/MS assay. Add internal standard precipitated protein of acetonitrile solution and fully mix them to extract supernatant samples via centrifugation. Quantitatively analyze plasma concentration by LC-MS/MS assay and calculate pharmacokinetic parameters such as maximal concentration (Cmax), half-life (T1/2), maximal time (Tmax), drug concentration in different tissues after administration (AUC0-last), and drug concentration ratio between brain tissues and plasma (B/P).

[3] = brain tissues, read-out: AUC0-last Brain Tissues
[4] = brain tissues, read-out: Tmax Brain Tissues
[5] = plasma, read-out: AUC0-last Plasma
[6] = plasma, read-out: T1/2 Plasma (converted)
[7] = brain tissues, read-out: T1/2 Brain Tissues (converted)

SMILES	IC50 [1] [nM]	IC50 (LRRK2 (pSer935)) [nM]	Kp [2]	AUC(0-t) [2, 3] [µM·h]	Tmax [2, 4] [min]	Cmax ([2]; plasma) [nM]	AUC(0-t) [2, 5] [µM·h]	half-life [2, 6] [min]	Tmax ([2]; plasma, read-out: Tmax Plasma) [min]	Cmax Brain Tissues ([2]; brain tissues) [nM]	half-life [2, 7] [min]
COc1nc(N2CCC3(CCOC3)C2)ccc1Nc1ncc(Cl)c(Nc2ccccc2P(C)(C)=O)n1 (stereo not drawn) [Embodiment 1]	21										
COc1nc(N2CCC3(CCCOC3)C2)ccc1Nc1ncc(Cl)c(Nc2ccccc2P(C)(C)=O)n1 (stereo not drawn) [Embodiment 2]	24.4										
COc1nc(N2CC3(CCOCC3)C2)ccc1Nc1ncc(Cl)c(Nc2ccccc2P(C)(C)=O)n1 [Embodiment 3]	6.2	4.3	0.14	0.192	30	1180	1.39	35.4	30	217	
COc1nc(N2CCC3(CCCCO3)C2)ccc1Nc1ncc(Cl)c(Nc2ccccc2P(C)(C)=O)n1 (stereo not drawn) [Embodiment 4]	34.2										
COc1nc(N2CCC3(CCCO3)C2)ccc1Nc1ncc(Cl)c(Nc2ccccc2P(C)(C)=O)n1 (stereo not drawn) [Embodiment 5]	8.2	4									
COc1nc(N2CC3(CCCOC3)C2)ccc1Nc1ncc(Cl)c(Nc2ccccc2P(C)(C)=O)n1 [Embodiment 6]	2.9	3.3									
COc1nc(N2CC3(CCCCO3)C2)ccc1Nc1ncc(Cl)c(Nc2ccccc2P(C)(C)=O)n1 [Embodiment 7]	8.5	10.9									
COc1nc(N2CCC3(CCOCC3)CC2)ccc1Nc1ncc(Cl)c(Nc2ccccc2P(C)(C)=O)n1 [Embodiment 8]	7.2										
COc1nc(N2CC3(CCOC3)C2)ccc1Nc1ncc(Cl)c(Nc2ccccc2P(C)(C)=O)n1 [Embodiment 9]	7.8	4.7	0.2	0.489	30	2600	2.48	33.6	30	604	21.6
COc1nc(N2CCC3(CCOCC3)C2)ccc1Nc1ncc(Cl)c(Nc2ccccc2P(C)(C)=O)n1 [Embodiment 10]	21.6										
COc1nc(N2CC3(CC(OC)C3)C2)ccc1Nc1ncc(Cl)c(Nc2ccccc2P(C)(C)=O)n1 [Embodiment 11]	5.3	4.5	0.41	0.597	30	1560	1.45	28.2	30	698	22.2
COc1nc(N2CC3(C2)CC(F)(F)C3)ccc1Nc1ncc(Cl)c(Nc2ccccc2P(C)(C)=O)n1 [Embodiment 13]	9.1		0.52	1.16	30	1200	2.25	58.8	30	726	43.2
COc1nc(N2CC3(CCC3)C2)ccc1Nc1ncc(Cl)c(Nc2ccccc2P(C)(C)=O)n1 [Embodiment 14]	15.2		0.96	4.2	60	1650	4.39		60	2042	
COc1nc(N2CC3(C2)CC3(F)F)ccc1Nc1ncc(Cl)c(Nc2ccccc2P(C)(C)=O)n1 [Embodiment 15]	7.4		0.54	2.15	30	2150	4.02	45	30	1436	37.8
COc1ncc(N2CC3(CCOC3)C2)cc1Nc1ncc(Cl)c(Nc2ccccc2P(C)(C)=O)n1 [Embodiment 16]	10.6										
COc1ncc(N2CCC3(CCOCC3)C2)cc1Nc1ncc(Cl)c(Nc2ccccc2P(C)(C)=O)n1 [Embodiment 17]	27.7										
COc1ncc(N2CC3(COC3)C2)cc1Nc1ncc(Cl)c(Nc2ccccc2P(C)(C)=O)n1 [Embodiment 18]	4.6	86.1									
COc1ncc(N2CC3(CCOCC3)C2)cc1Nc1ncc(Cl)c(Nc2ccccc2P(C)(C)=O)n1 [Embodiment 19]	11.9										
COc1c(Nc2ncc(Cl)c(Nc3ccccc3P(C)(C)=O)n2)ccnc1N1CC2(CCOC2)C1 [Embodiment 20]	1.6	22									
COc1c(Nc2ncc(Cl)c(Nc3ccccc3P(C)(C)=O)n2)ccnc1N1CC2(CCC2)C1 [Embodiment 21]	36.8										
COc1c(Nc2ncc(Cl)c(Nc3ccccc3P(C)(C)=O)n2)ccnc1N1CC2(COC2)C1 [Embodiment 22]	2.6	44									
